The structures appear in SMILES notation. pIC50: −log10 of the molar value. Bounds are passed on as bounds.

The target in one experiment is T1, CDK4/Cyclin D1 (Homo sapiens, UniProt P11802).
T1 construct: purchased ProQinase; host or cells: insect cell
Put plainly: CDK4/CyclinD1 Enzymatic Activity Assay (TR-FRET). The format is biochemical. The following applies: ATP 2 mM final, read-out: CDK4_D1 IC50. The method, then:
CDK4/CyclinD1 Enzymatic Activity Assay
The inhibitory activity of compounds was evaluated in vitro using TR-FRET assay with white 384-well low volume microplate (Greiner Bio-One). CDK4/Cyclin D1 catalyzed phosphorylation of peptide in the presence and absence of compounds was measured and used in IC50 determination. Recombinant protein complex CDK4/Cyclin D1, expressed from insect cell, was purchased from ProQinase. Testing compounds were dissolved in DMSO at 1 mM and tested in 9-dose IC50 mode. The reaction mixture was prepared by mixing CDK4/CyclinD1 (1 nM final), ULight-4E-BP1 (100 nM final, Perkinelmer, TRF0128-D), and ATP (2 mM final) in assay buffer (20 mM of HEPES pH 7.4, 1 mM of EGTA, 0.05% BSA, 0.005% Tween 20, and 1 mM TCEP). The compound of interest in DMSO was added to each well in 3-fold serial dilution by the dispenser (TECAN D300E) to make a 9.9 μL of reaction mixture. After 20 minutes preincubation at room temperature, 0.1 μL MgCl2 (10 mM final) was added to initiate the reaction. Following a 45-minute incubation at 37° C., the reaction was stopped by addition of 2 μL of quenching buffer consisting of Lance detection buffer (Perkinelmer CR97-100C), LANCE Ultra Europium-anti-P-4E-BP1 (Perkinelmer, TRF0216-D), EDTA, and incubated at room temperature for additional 60 minutes in dark. The reaction signal was measured by Envision multimode plate reader (PerkinElmer, 2102-0010). IC50 values were determined by fitting the data to the standard 4 parameters with Hill Slope using GraphPad Prism software.
For orientation: In TR-FRET formats the signal depends on donor and acceptor labels being close together.

A further experiment has as its system OVCAR3 p-RB. Put plainly: pRB ICW Assay in OVCAR3 Cells. The format is cell-based. The conditions noted are these: Homo sapiens, OVCAR-3, incubated with compound for 2 hours. Summed up:
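In-Cell Western on OVCAR3: phospho-RB antibody signal with DRAQ5 counterstain read at 700 and 800 nm after fixation. Compounds were applied for 2 h at 37° C. as 9-point ½-log dilutions in duplicate; 10 μM reference compound defined full inhibition.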

Another experiment has as its target T2, CDK2/Cyclin E2 (Homo sapiens, UniProt P24941).
T2 construct: Recombinant protein complex CDK2/Cyclin E2, expressed from insect cell, was purchased from ProQinase
Put plainly: CDK2/CyclinE2 Enzymatic Activity Assay (TR-FRET). The format is biochemical. The following applies: ATP 1 mM final, read-out: CDK2_E1 IC50. Summed up:
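Recombinant insect-cell CDK2/Cyclin E2 (1 nM) phosphorylated ULight-4E-BP1 (50 nM) with 1 mM ATP in HEPES pH 7.4 buffer, after 20 min compound preincubation; MgCl2 (10 mM) started the 45 min reaction at 37° C. Europium anti-phospho-4E-BP1 TR-FRET read; 9-dose IC50 by 4-parameter fit.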

T1 sequence (P11802 whole entry): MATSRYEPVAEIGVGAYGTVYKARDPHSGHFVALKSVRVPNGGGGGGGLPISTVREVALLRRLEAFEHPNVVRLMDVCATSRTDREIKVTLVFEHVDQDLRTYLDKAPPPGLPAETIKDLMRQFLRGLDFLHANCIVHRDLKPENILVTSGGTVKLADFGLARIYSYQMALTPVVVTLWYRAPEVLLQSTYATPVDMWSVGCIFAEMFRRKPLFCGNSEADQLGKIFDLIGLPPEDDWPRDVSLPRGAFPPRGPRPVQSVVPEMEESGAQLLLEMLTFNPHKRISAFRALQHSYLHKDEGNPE
T1 sequence (P24385 whole entry partner): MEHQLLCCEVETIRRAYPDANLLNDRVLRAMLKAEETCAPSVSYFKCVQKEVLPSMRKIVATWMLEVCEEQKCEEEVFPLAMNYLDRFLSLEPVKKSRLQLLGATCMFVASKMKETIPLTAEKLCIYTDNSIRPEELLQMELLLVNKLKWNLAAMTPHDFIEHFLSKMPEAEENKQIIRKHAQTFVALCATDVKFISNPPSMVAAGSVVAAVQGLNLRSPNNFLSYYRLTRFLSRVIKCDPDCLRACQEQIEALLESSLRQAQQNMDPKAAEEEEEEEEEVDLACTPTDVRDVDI

Turning to `C[C@@H]1CN(S(=O)(=O)c2cn(C)cn2)CC[C@@H]1Nc1ncc(C(F)(F)F)c(-c2ncc(C(C)(O)C(F)F)s2)n1` (stereo partly drawn) [Example 104, 1,1-difluoro-2-(2-(2-(((3R,4S)-3-methyl-1-((1-methyl-1H-imidazol-4-yl)sulfonyl)piperidin-4-yl)amino)-5-(trifluoromethyl)pyrimidin-4-yl)thiazol-5-yl)propan-2-ol], the pIC50 at CDK4/Cyclin D1, with OVCAR3 p-RB and at CDK2/Cyclin E2 was not below 7.00 each time.
For `COc1cc(-c2nc(NC3CCN(S(C)(=O)=O)CC3)ncc2C(F)(F)F)sc1C` [Example 76, 4-(4-methoxy-5-methylthiophen-2-yl)-N-(1-(methylsulfonyl)piperidin-4-yl)-5-(trifluoromethyl)pyrimidin-2-amine], the negative-log IC50 (pIC50) at CDK4/Cyclin D1 is 6.30 to 7.00; in the experiment on OVCAR3 p-RB it was less than 6.30; at CDK2/Cyclin E2, 6.30 to 7.00.
For `Cc1cnc(-c2nc(N[C@@H]3CCN(S(=O)(=O)c4cnn(C)c4)C[C@H]3F)ncc2C(F)(F)F)s1` [Example 27, N-((3R,4R)-3-fluoro-1-((1-methyl-1H-pyrazol-4-yl)sulfonyl)piperidin-4-yl)-4-(5-methylthiazol-2-yl)-5-(trifluoromethyl)pyrimidin-2-amine], the negative-log IC50 (pIC50) at CDK4/Cyclin D1 was not below 7.00; in the experiment on OVCAR3 p-RB, 6.30 to 7.00; at CDK2/Cyclin E2, not below 7.00.
With `C[C@@H]1CN(S(C)(=O)=O)CC[C@@H]1Nc1ncc(C(F)(F)F)c(-c2ncc(C(C)(O)C(F)F)s2)n1` (stereo partly drawn) [Example 142, 1,1-difluoro-2-(2-(2-(((3R,4S)-3-methyl-1-(methylsulfonyl)piperidin-4-yl)amino)-5-(trifluoromethyl)pyrimidin-4-yl)thiazol-5-yl)propan-2-ol], the pIC50 is 6.30 to 7.00 on CDK4/Cyclin D1, 6.30 to 7.00 in the experiment with OVCAR3 p-RB and not below 7.00 on CDK2/Cyclin E2.
For `CS(=O)(=O)N1CCC(Nc2ncc(C(F)(F)F)c(-c3cc(C(N)=O)ns3)n2)CC1` [Example 84, 5-(2-((1-(methylsulfonyl)piperidin-4-yl)amino)-5-(trifluoromethyl)pyrimidin-4-yl)isothiazole-3-carboxamide], the negative-log IC50 (pIC50) on CDK4/Cyclin D1, with OVCAR3 p-RB and at CDK2/Cyclin E2 was not below 7.00 each time.
On to `CC(C)(O)Cc1cnc(-c2nc(NC3CCN(S(C)(=O)=O)CC3)ncc2C(F)(F)F)s1` [Example 107, 2-Methyl-1-(2-(2-((1-(methylsulfonyl)piperidin-4-yl)amino)-5-(trifluoromethyl)pyrimidin-4-yl)thiazol-5-yl)propan-2-ol], for which the pIC50 at CDK4/Cyclin D1, in the experiment on OVCAR3 p-RB and on CDK2/Cyclin E2 was not below 7.00 each time.
In the case of `Cc1sc(-c2nc(NC3CCN(S(=O)(=O)c4cnn(C)c4)CC3)ncc2C(F)(F)F)cc1C#N` [Example 72, 2-methyl-5-(2-((1-((1-methyl-1H-pyrazol-4-yl)sulfonyl)piperidin-4-yl)amino)-5-(trifluoromethyl)pyrimidin-4-yl)thiophene-3-carbonitrile], the negative logarithm of the IC50 (pIC50) at CDK4/Cyclin D1, in the experiment on OVCAR3 p-RB and at CDK2/Cyclin E2 was not below 7.00 throughout.
Turning to `Cc1sc(-c2nc(N[C@H]3CCN(S(=O)(=O)c4cn(C)cn4)C[C@H]3C)ncc2C(F)(F)F)cc1C#N` [Example 53, 2-methyl-5-(2-(((3R,4S)-3-methyl-1-((1-methyl-1H-imidazol-4-yl)sulfonyl)piperidin-4-yl)amino)-5-(trifluoromethyl)pyrimidin-4-yl)thiophene-3-carbonitrile], the negative logarithm of the IC50 (pIC50) is 6.30 to 7.00 on CDK4/Cyclin D1, less than 6.30 in the experiment on OVCAR3 p-RB and not below 7.00 on CDK2/Cyclin E2.
The like results for `C[C@@H]1CN(S(=O)(=O)c2cnn(C)c2)CC[C@@H]1Nc1ncc(C(F)(F)F)c(-c2cc(C(N)=O)cs2)n1` [Example 19, 5-(2-(((3R,4S)-3-methyl-1-((1-methyl-1H-pyrazol-4-yl)sulfonyl)piperidin-4-yl)amino)-5-(trifluoromethyl)pyrimidin-4-yl)thiophene-3-carboxamide] were, in that order, not below 7.00, not below 7.00 and not below 7.00.
With `Cn1cc(S(=O)(=O)N2CC[C@H](Nc3ncc(C(F)(F)F)c(-c4cc(C#N)c(CC(C)(C)O)s4)n3)[C@H](F)C2)cn1` [Example 41, 5-(2-(((3R,4S)-3-fluoro-1-((1-methyl-1H-pyrazol-4-yl)sulfonyl)piperidin-4-yl)amino)-5-(trifluoromethyl)pyrimidin-4-yl)-2-(2-hydroxy-2-methylpropyl)thiophene-3-carbonitrile], the negative logarithm of the IC50 (pIC50) on CDK4/Cyclin D1, in the experiment on OVCAR3 p-RB and at CDK2/Cyclin E2 was not below 7.00 in each case.
Turning to `Cc1cnc(-c2nc(N[C@H]3CCN(S(=O)(=O)c4cn(C)cn4)C[C@H]3F)ncc2C(F)(F)F)s1` [Example 28, N-((3R,4S)-3-fluoro-1-((1-methyl-1H-imidazol-4-yl)sulfonyl)piperidin-4-yl)-4-(5-methylthiazol-2-yl)-5-(trifluoromethyl)pyrimidin-2-amine], the pIC50 on CDK4/Cyclin D1, in the experiment on OVCAR3 p-RB and at CDK2/Cyclin E2 was not below 7.00 throughout.
As to `Cn1cc(S(=O)(=O)N2CC[C@H](Nc3ncc(C(F)(F)F)c(-c4cc(C(N)=O)c(CC(C)(C)O)s4)n3)[C@H](F)C2)cn1` [Example 46, 5-(2-(((3R,4S)-3-fluoro-1-((1-methyl-1H-pyrazol-4-yl)sulfonyl)piperidin-4-yl)amino)-5-(trifluoromethyl)pyrimidin-4-yl)-2-(2-hydroxy-2-methylpropyl)thiophene-3-carboxamide], the negative logarithm of the IC50 (pIC50) at CDK4/Cyclin D1, with OVCAR3 p-RB and at CDK2/Cyclin E2 was not below 7.00 throughout.
On to `Cc1sc(-c2nc(N[C@H]3CCN(S(=O)(=O)c4cn(C)cn4)C[C@H]3C)ncc2C(F)(F)F)cc1C(N)=O` [Example 24, 2-methyl-5-(2-(((3R,4S)-3-methyl-1-((1-methyl-1H-imidazol-4-yl)sulfonyl)piperidin-4-yl)amino)-5-(trifluoromethyl)pyrimidin-4-yl)thiophene-3-carboxamide], for which the pIC50 on CDK4/Cyclin D1, in the experiment on OVCAR3 p-RB and on CDK2/Cyclin E2 was not below 7.00 in each case.
For the molecule `CC(O)c1cnc(-c2nc(NC3CCN(S(=O)(=O)c4cn[nH]c4)CC3)ncc2C(F)(F)F)s1` (stereo not drawn) [Example 56, 1-(2-(2-((1-((1H-pyrazol-4-yl)sulfonyl)piperidin-4-yl)amino)-5-(trifluoromethyl)pyrimidin-4-yl)thiazol-5-yl)ethan-1-ol], the pIC50 on CDK4/Cyclin D1, with OVCAR3 p-RB and at CDK2/Cyclin E2 was not below 7.00 in each case.
As to `Cn1cnc(S(=O)(=O)N2CCC(Nc3ncc(C(F)(F)F)c(-c4cc(C#N)c(CC(C)(C)O)s4)n3)CC2)c1` [Example 39, 2-(2-hydroxy-2-methylpropyl)-5-(2-((1-((1-methyl-1H-imidazol-4-yl)sulfonyl)piperidin-4-yl)amino)-5-(trifluoromethyl)pyrimidin-4-yl)thiophene-3-carbonitrile], the pIC50 on CDK4/Cyclin D1, in the experiment with OVCAR3 p-RB and at CDK2/Cyclin E2 was not below 7.00 throughout.
For `Cc1sc(-c2nc(N[C@@H]3CCN(S(=O)(=O)c4cnn(C)c4)C[C@H]3F)ncc2C(F)(F)F)cc1C#N` [Example 4, 5-(2-(((3R,4R)-3-fluoro-1-((1-methyl-1H-pyrazol-4-yl)sulfonyl)piperidin-4-yl)amino)-5-(trifluoromethyl)pyrimidin-4-yl)-2-methylthiophene-3-carbonitrile], the figures for the pIC50 at CDK4/Cyclin D1, in the experiment with OVCAR3 p-RB and at CDK2/Cyclin E2 were not below 7.00, 6.30 to 7.00 and not below 7.00, respectively.
As to `COCc1cc(-c2nc(NC3CCN(S(=O)(=O)c4cnn(C)c4)CC3)ncc2C(F)(F)F)sc1C` [Example 82, 4-(4-(methoxymethyl)-5-methylthiophen-2-yl)-N-(1-((1-methyl-1H-pyrazol-4-yl)sulfonyl)piperidin-4-yl)-5-(trifluoromethyl)pyrimidin-2-amine], the values for the pIC50 on CDK4/Cyclin D1, with OVCAR3 p-RB and on CDK2/Cyclin E2 were 6.30 to 7.00, less than 6.30 and not below 7.00, respectively.
As for `Cc1sc(-c2nc(NC3CCN(S(C)(=O)=O)CC3)ncc2C(F)(F)F)cc1C(F)F` [Example 80, 4-(4-(difluoromethyl)-5-methylthiophen-2-yl)-N-(1-(methylsulfonyl)piperidin-4-yl)-5-(trifluoromethyl)pyrimidin-2-amine], the figures for the pIC50 at CDK4/Cyclin D1, in the experiment on OVCAR3 p-RB and on CDK2/Cyclin E2 were not below 7.00, 6.30 to 7.00 and not below 7.00, respectively.

In general, pIC50 refers to the IC50 on a negative log10 scale, so that one unit is a factor of ten.

For the origin of these results see US20240150340A1, “CDK Inhibitors And Their Use As Pharmaceuticals” (Prelude Therapeutics Incorporated, priority 2022, published 2024).
